This note sets out measurements from patent US20220315578A1, “BRD9 BIFUNCTIONAL DEGRADERS AND THEIR METHODS OF USE” (NOVARTIS AG, priority 2019, published 2022).

This test deals with T1, BRD9-GFP (Homo sapiens, UniProt Q9H8M2).
T1 construct: CHYSEL (2A cis-acting hydrolase element) remnant after GFP; mCherry is split off as a separate protein (C); expressed in transfected cells; host or cells: HEK293A cells (Invitrogen R70507), lentiviral transduction with pLenti6-BRD9-GFP-CHYSEL-mCherry, blasticidin selection
T1 sequence (Q9H8M2 1-597): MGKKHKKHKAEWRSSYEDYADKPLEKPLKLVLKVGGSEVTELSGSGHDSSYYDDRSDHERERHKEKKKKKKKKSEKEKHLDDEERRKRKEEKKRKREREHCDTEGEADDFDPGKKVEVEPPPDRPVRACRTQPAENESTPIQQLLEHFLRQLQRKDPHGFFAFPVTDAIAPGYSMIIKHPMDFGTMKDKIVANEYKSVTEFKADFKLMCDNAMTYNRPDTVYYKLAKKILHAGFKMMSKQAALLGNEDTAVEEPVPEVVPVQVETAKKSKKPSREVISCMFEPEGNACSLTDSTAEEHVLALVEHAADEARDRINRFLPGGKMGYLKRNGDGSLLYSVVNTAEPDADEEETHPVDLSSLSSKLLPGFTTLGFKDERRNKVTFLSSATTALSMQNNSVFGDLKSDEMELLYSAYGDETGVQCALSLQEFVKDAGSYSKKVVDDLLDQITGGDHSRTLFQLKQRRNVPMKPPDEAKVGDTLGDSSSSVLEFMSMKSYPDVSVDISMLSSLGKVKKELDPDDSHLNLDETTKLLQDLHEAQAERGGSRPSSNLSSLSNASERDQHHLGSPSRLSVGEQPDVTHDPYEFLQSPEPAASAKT
Put plainly: BRD9-GFP protein abundance flow cytometry assay in HEK293A cells. Particulars: HEK293A-BRD9-GFP-CHYSEL-mCherry cells; for BRD9 Deg Amax %: 24 h, % protein remaining at the concentration at which maximum degradation is seen; for DC50: 24 h at 37° C., 10-point 1:3 dilution, concentration at which 50% maximal degradation was observed. It counts as cell-based. The procedure, abridged: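 HEK293A cells stably express bicistronic BRD9-GFP-CHYSEL-mCherry and received 24 h treatment at 37° C with a 10-point, 3-fold dilution series from […], in 0.1% DMSO and duplicate. Median GFP/mCherry ratio of 5,000 single cells by flow cytometry, normalized to mCherry-only cells (0%) and DMSO (100%), gave DC50 and Amax (% protein remaining).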

`Cn1cc(-c2cc(F)c(CN3CC[C@@H](OC4CCN(CCn5cccc(CN6CCC(=O)NC6=O)c5=O)CC4)[C@H](F)C3)c(F)c2)c2ccncc2c1=O` [Compound E30, 1-((1-(2-(4-(((3R,4R)-1-(2,6-difluoro-4-(2-methyl-1-oxo-1,2-dihydro-2,7-naphthyridin-4-yl)benzyl)-3-fluoropiperidin-4-yl)oxy)piperidin-1-yl)ethyl)-2-oxo-1,2-dihydropyridin-3-yl)methyl)dihydro-pyrimidine-2,4(1H,3H)-dione]: the “BRD9 Deg Amax %” value stood at 11.19% and it took 3 nM to reach half-maximal degradation (DC50).

For the compound `COc1cc(-c2cn(C)c(=O)c3cnccc23)cc(OC)c1CCN1CCC(OC2CCN(C(=O)c3ccc(Cl)c(N4CCC(=O)NC4=O)c3)CC2)CC1` [Compound A38, 1-(2-Chloro-5-(4-((1-(2,6-dimethoxy-4-(2-methyl-1-oxo-1,2-dihydro-2,7-naphthyridin-4-yl)phenethyl)piperidin-4-yl)oxy)piperidine-1-carbonyl)phenyl)dihydropyrimidine-2,4(1H,3H)-dione], the “BRD9 Deg Amax %” value is listed as 15.53% and half-maximal degradation (DC50) was put at 1 nM.

In the case of `COc1ccc(C(=O)N2CCC(CN3CCC(Oc4c(OC)cc(-c5cn(C)c(=O)c6cnccc56)cc4OC)CC3)CC2)cc1N1CCC(=O)NC1=O` [Compound A6, 1-(5-(4-((4-(2,6-Dimethoxy-4-(2-methyl-1-oxo-1,2-dihydro-2,7-naphthyridin-4-yl)phenoxy)piperidin-1-yl)methyl)piperidine-1-carbonyl)-2-methoxyphenyl)dihydropyrimidine-2,4(1H,3H)-dione], the “BRD9 Deg Amax %” value came to 12.25% and the DC50 (commonly the midpoint of the concentration-degradation curve) amounted to 3 nM.

As to `CCCCn1cc(-c2ccc(OC3CCN(CC4CCN(C(=O)c5ccc(OC)c(N6CCC(=O)NC6=O)c5)CC4)CC3)c(Cl)c2)c2ccncc2c1=O` [Compound E43, 1-(5-(4-((4-(4-(2-butyl-1-oxo-1,2-dihydro-2,7-naphthyridin-4-yl)-2-chlorophenoxy)piperidin-1-yl)methyl)piperidine-1-carbonyl)-2-methoxyphenyl)dihydropyrimidine-2,4(1H,3H)-dione], the “BRD9 Deg Amax %” value is recorded as 17.45% and it took 3 nM to reach half-maximal degradation (DC50).

`COc1cc(-c2cn(C)c(=O)c3cnccc23)cc(OC)c1CN1CCC(OC2CCN(C(=O)c3ccc(C)c(N4CCC(=O)NC4=O)c3)CC2)CC1` [Compound A33, 1-(5-(4-((1-(2,6-Dimethoxy-4-(2-methyl-1-oxo-1,2-dihydro-2,7-naphthyridin-4-yl)benzyl)piperidin-4-yl)oxy)piperidine-1-carbonyl)-2-methylphenyl)dihydropyrimidine-2,4(1H,3H)-dione]: the “BRD9 Deg Amax %” value is given as 13.30% and it took 34 nM to reach half-maximal degradation (DC50).

Consider `COc1cc(-c2cn(C)c(=O)c3cnccc23)ccc1OC1CCN(CC2CCN(C(=O)c3cccc(N4CCC(=O)NC4=O)c3)CC2)CC1` [Compound A11, 1-(3-(4-((4-(2-Methoxy-4-(2-methyl-1-oxo-1,2-dihydro-2,7-naphthyridin-4-yl)phenoxy)piperidin-1-yl)methyl)piperidine-1-carbonyl)phenyl)dihydropyrimidine-2,4(1H,3H)-dione], for which the “BRD9 Deg Amax %” value is recorded as 19.45% and the DC50 came out at 12 nM.

Take `Cn1cc(-c2cc(F)c(CN3CCC(OC4CCN(CCn5cccc(CN6CCC(=O)NC6=O)c5=O)CC4)CC3)c(F)c2)c2ccncc2c1=O` [Compound E18, 1-((1-(2-(4-((1-(2,6-difluoro-4-(2-methyl-1-oxo-1,2-dihydro-2,7-naphthyridin-4-yl)benzyl)piperidin-4-yl)oxy)piperidin-1-yl)ethyl)-2-oxo-1,2-dihydropyridin-3-yl)methyl)dihydro-pyrimidine-2,4(1H,3H)-dione]: the “BRD9 Deg Amax %” value was found to be 16.66% and it took 19 nM to reach half-maximal degradation (DC50).

As to `CCCCn1cc(-c2ccc(O[C@@H]3CCN(CC4CCN(CCn5cccc(CN6CCC(=O)NC6=O)c5=O)CC4)C[C@H]3F)c(F)c2)c2ccncc2c1=O` [Compound E17, 1-((1-(2-(4-(((3R,4R)-4-(4-(2-butyl-1-oxo-1,2-dihydro-2,7-naphthyridin-4-yl)-2-fluorophenoxy)-3-fluoropiperidin-1-yl)methyl)piperidin-1-yl)ethyl)-2-oxo-1,2-dihydropyridin-3-yl)methyl)dihydropyrimidine-2,4(1H,3H)-dione], the “BRD9 Deg Amax %” value is 18.79% and the DC50 came to 5 nM.

As for `COc1ccc(C(=O)N2CCC(OC3CCN(Cc4c(OC)cc(-c5cc(C)c(=O)n(C)c5)cc4OC)CC3)CC2)cc1N1CCC(=O)NC1=O` [Compound A1], the “BRD9 Deg Amax %” value worked out at 10.72% and the DC50 is 54 nM.

For `CCCn1cc(-c2cc(OC)c(CCN3CC[C@@H](OC4CCN(CCn5cccc(CN6CCC(=O)NC6=O)c5=O)CC4)[C@H](F)C3)c(OC)c2)c(C)c(C)c1=O` [Compound E7, 1-((1-(2-(4-(((3R,4R)-1-(4-(4,5-Dimethyl-6-oxo-1-propyl-1,6-dihydropyridin-3-yl)-2,6-dimethoxyphenethyl)-3-fluoropiperidin-4-yl)oxy)piperidin-1-yl)ethyl)-2-oxo-1,2-dihydropyridin-3-yl)methyl)dihydropyrimidine-2,4(1H,3H)-dione], the “BRD9 Deg Amax %” value turned out to be 18.57% and the DC50 amounted to 4 nM.

For the compound `CCCn1cc(-c2cc(F)c(CCN3CCC(OC4CCN(C(=O)c5ccc(Cl)c(N6CCC(=O)NC6=O)c5)CC4)CC3)c(OC)c2)c(C)c(C)c1=O` [Compound E52, 1-(2-Chloro-5-(4-((1-(4-(4,5-dimethyl-6-oxo-1-propyl-1,6-dihydropyridin-3-yl)-2-fluoro-6-methoxyphenethyl)piperidin-4-yl)oxy)piperidine-1-carbonyl)phenyl)dihydropyrimidine-2,4(1H,3H)-dione], the “BRD9 Deg Amax %” value was found to be 14.99% and it took 4 nM to reach half-maximal degradation (DC50).

Consider `COc1cc(-c2cn(C)c(=O)c3cnccc23)c(OC)cc1CCN1CCC(OC2CCN(CCn3cccc(CN4CCC(=O)NC4=O)c3=O)CC2)CC1` [Compound C3, 1-((1-(2-(4-((1-(2,5-dimethoxy-4-(2-methyl-1-oxo-1,2-dihydro-2,7-naphthyridin-4-yl)phenethyl)piperidin-4-yl)oxy)piperidin-1-yl)ethyl)-2-oxo-1,2-dihydropyridin-3-yl)methyl)dihydropyrimidine-2,4(1H,3H)-dione], for which the “BRD9 Deg Amax %” value stood at 17.50% and it took 77 nM to reach half-maximal degradation (DC50).

For `CCCCn1cc(-c2ccc(O[C@H]3CCN(CC4CCN(CCn5cccc(CN6CCC(=O)NC6=O)c5=O)CC4)C[C@@H]3F)cc2)c2ccncc2c1=O` [Compound E28, 1-((1-(2-(4-(((3S,4S)-4-(4-(2-butyl-1-oxo-1,2-dihydro-2,7-naphthyridin-4-yl)phenoxy)-3-fluoropiperidin-1-yl)methyl)piperidin-1-yl)ethyl)-2-oxo-1,2-dihydropyridin-3-yl)methyl)dihydropyrimidine-2,4(1H,3H)-dione], the “BRD9 Deg Amax %” value was determined as 23.20% and the 50% degradation concentration (DC50) came to 21 nM.

As for `COc1cc(-c2cn(C)c(=O)c3cnccc23)cc(OC)c1CCN1CCC(OC2CCN(C(=O)COc3ccc(N4CCC(=O)NC4=O)cc3)CC2)CC1` [Compound A25, 1-(4-(2-(4-((1-(2,6-Dimethoxy-4-(2-methyl-1-oxo-1,2-dihydro-2,7-naphthyridin-4-yl)phenethyl)piperidin-4-yl)oxy)piperidin-1-yl)-2-oxoethoxy)phenyl)dihydropyrimidine-2,4(1H,3H)-dione], the “BRD9 Deg Amax %” value stood at 18.22% and the 50% degradation concentration (DC50) was found to be 10 nM.

Consider `COc1cc(-c2cn(C)c(=O)c3cnccc23)cc(OC)c1CCN1CCC(OC2CCN(CCn3cccc(CN4CCC(=O)NC4=O)c3=O)CC2)CC1` [Compound C4, 1-((1-(2-(4-((1-(2,6-dimethoxy-4-(2-methyl-1-oxo-1,2-dihydro-2,7-naphthyridin-4-yl)phenethyl)piperidin-4-yl)oxy)piperidin-1-yl)ethyl)-2-oxo-1,2-dihydropyridin-3-yl)methyl)dihydropyrimidine-2,4(1H,3H)-dione], for which the “BRD9 Deg Amax %” value was found to be 19.82% and half-maximal degradation (DC50) was put at 17 nM.

As to `CCCCn1cc(-c2cc(F)c(CN3CCC(OC4CCN(C(=O)c5ccc(OC)c(N6CCC(=O)NC6=O)c5)CC4)CC3)c(OC)c2)c2ccncc2c1=O` [Compound E51, 1-(5-(4-((1-(4-(2-butyl-1-oxo-1,2-dihydro-2,7-naphthyridin-4-yl)-2-fluoro-6-methoxybenzyl)-piperidin-4-yl)oxy)piperidine-1-carbonyl)-2-meth-oxyphenyl)dihydro-pyrimidine-2,4(1H,3H)-dione], the “BRD9 Deg Amax %” value was found to be 11.66% and the 50% degradation concentration (DC50) is 7 nM.
